Experimental data as given in patent US12084437B2, “Halo-substituted piperidines as orexin receptor modulators” (AstraZeneca AB, priority 2016, dated 2024).

Experiments:
OX1 = molecular target: T1, OX1 (Homo sapiens, UniProt O43613); assay: Orexin receptor cell-based functional assay, [Ca2+]i by FLIPR, CHO-OX1 cells; conditions: FLIPR calcium, antagonism of EC90 of [OX], read-out: OXI, IC50
T1 construct: expressed in transfected cells; host or cells: CHO (CHO-OX1)
T1 sequence (O43613 1-425): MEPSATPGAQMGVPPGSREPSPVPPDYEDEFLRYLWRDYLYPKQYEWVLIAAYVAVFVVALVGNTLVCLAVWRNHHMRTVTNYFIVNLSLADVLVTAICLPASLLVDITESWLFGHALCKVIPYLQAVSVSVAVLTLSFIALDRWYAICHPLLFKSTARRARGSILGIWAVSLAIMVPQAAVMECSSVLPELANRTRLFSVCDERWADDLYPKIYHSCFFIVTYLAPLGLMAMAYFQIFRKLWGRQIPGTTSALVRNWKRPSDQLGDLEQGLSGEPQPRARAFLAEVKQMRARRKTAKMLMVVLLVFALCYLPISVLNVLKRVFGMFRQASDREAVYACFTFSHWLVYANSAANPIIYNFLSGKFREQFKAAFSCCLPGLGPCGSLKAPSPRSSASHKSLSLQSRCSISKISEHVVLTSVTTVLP

OX2 = molecular target: T2, OX2 (Homo sapiens, UniProt O43614); assay: Orexin receptor cell-based functional assay, [Ca2+]i by FLIPR, CHO-OX2 cells; conditions: FLIPR calcium, antagonism of EC90 of [OX]
T2 construct: expressed in transfected cells; host or cells: CHO (CHO-OX2)
T2 sequence (O43614 1-444): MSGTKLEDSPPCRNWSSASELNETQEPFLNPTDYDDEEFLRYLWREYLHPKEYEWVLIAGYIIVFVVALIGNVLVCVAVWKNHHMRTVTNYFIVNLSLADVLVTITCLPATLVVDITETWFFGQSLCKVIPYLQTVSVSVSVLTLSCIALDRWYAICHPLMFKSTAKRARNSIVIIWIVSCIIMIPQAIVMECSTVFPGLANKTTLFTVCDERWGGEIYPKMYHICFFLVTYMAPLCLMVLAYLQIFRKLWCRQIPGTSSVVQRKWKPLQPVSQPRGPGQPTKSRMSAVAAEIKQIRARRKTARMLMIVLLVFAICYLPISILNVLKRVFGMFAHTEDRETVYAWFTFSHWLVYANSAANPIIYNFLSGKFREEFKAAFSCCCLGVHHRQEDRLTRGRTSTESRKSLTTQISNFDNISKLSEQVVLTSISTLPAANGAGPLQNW
Method in brief: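 CHO cells expressing human OX1 or OX2 (20,000/well, grown overnight) were loaded with Calcium6 dye plus 2.5 mM probenecid for 2 h at 37 °C, then preincubated 30 min with compound (0.1 nM–10 µM). FLIPR fluorescence (ex 488/em 540 nm) was tracked before and after an EC90 orexin challenge.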

| SMILES | IC50 (OX1) | IC50 (OX2) |
| --- | --- | --- |
| C[C@@H]1CC(F)(F)CN(C(=O)c2cc(Cl)ccc2-n2nccn2)[C@@H]1CNc1ncc(C(F)(F)F)cn1 [Compound 10] | 7 nM | > 5000 nM |
| Cc1ccc(-c2cn(C)nc2C(=O)N2CC(F)(F)C[C@@H](C)[C@H]2CNc2ccc(C(F)(F)F)cn2)cc1 [Compound 175] | 4 nM | 4140 nM |
| COc1ccc(-c2cn(C)nc2C(=O)N2CC(F)(F)C[C@@H](C)[C@H]2CNc2cnc(C(F)(F)F)cn2)nc1 [Compound 135] | 19 nM | > 5000 nM |
| Cc1nc(C(=O)N2CC(F)(F)C[C@@H](C)[C@H]2CNc2ncc(C(F)(F)F)cn2)c(-c2ncccn2)s1 [Compound 49] | 6 nM | > 5000 nM |
| C[C@@H]1CC(F)(F)CN(C(=O)c2nn(C)cc2-c2cnccn2)[C@@H]1CNc1ncc(C(F)(F)F)cn1 [Compound 224, ((2S,3R)-5,5-difluoro-3-methyl-2-(((5-(trifluoromethyl)pyrimidin-2-yl)amino)methyl)piperidin-1-yl)(1-methyl-4-(pyrazin-2-yl)-1H-pyrazol-3-yl)methanone] | 62 nM | > 5000 nM |
| C[C@@H]1CC(F)(F)CN(C(=O)c2nn(C)cc2-c2ccccc2)[C@@H]1CNc1ncc(C(F)(F)F)cn1 [Compound 21] | 2 nM | > 5000 nM |
| Cc1ccc(-n2nccn2)c(C(=O)N2CC(F)(F)C[C@@H](C)[C@H]2CNc2ncc(Cl)cn2)n1 [Compound 13] | 15 nM | > 5000 nM |
| Cc1ccc(-n2nccn2)c(C(=O)N2CC(F)(F)C[C@@H](C)[C@H]2CNc2cnc(C(F)(F)F)cn2)n1 [Compound 153] | 27 nM | > 5000 nM |
| C[C@@H]1CC(F)(F)CN(C(=O)c2nn(C)cc2-c2cccc(F)c2)[C@@H]1CNc1ncc(C(F)(F)F)cn1 [Compound 25] | 4 nM | > 5000 nM |
| C[C@@H]1CC(F)(F)CN(C(=O)c2cc(F)ccc2-c2ncccn2)[C@@H]1CNc1ncc(C(F)(F)F)cn1 [Compound 54] | 43 nM | > 5000 nM |
| Cc1ccnc(-c2cn(C)nc2C(=O)N2CC(F)(F)C[C@@H](C)[C@H]2CNc2cnc(C(F)(F)F)cn2)c1 [Compound 134] | 4 nM | > 5000 nM |
| C[C@@H]1CC(F)(F)CN(C(=O)c2nn(C)cc2-c2ncc(F)cn2)[C@@H]1CNc1ncc(C(F)(F)F)cc1F [Compound 242, ((2S,3R)-5,5-difluoro-2-(((3-fluoro-5-(trifluoromethyl)pyridin-2-yl)amino)methyl)-3-methylpiperidin-1-yl)(4-(5-fluoropyrimidin-2-yl)-1-methyl-1H-pyrazol-3-yl)methanone] | 5 nM | > 5000 nM |
| C[C@@H]1CC(F)(F)CN(C(=O)c2nn(C)nc2-c2ccc(F)cc2)[C@@H]1CNc1ncc(C(F)(F)F)cn1 [Compound 81] | 102 nM | > 5000 nM |
| C[C@@H]1CC(F)(F)CN(C(=O)c2nn(C)cc2-c2ccccc2)[C@@H]1CNc1ncc(Cl)cn1 [Compound 22] | 7 nM | > 5000 nM |
| C[C@@H]1CC(F)(F)CN(C(=O)c2nn(C)cc2-c2cccnc2)[C@@H]1CNc1cnc(C(F)(F)F)cn1 [Compound 155] | 38 nM | > 5000 nM |
| C[C@@H]1CC(F)(F)CN(C(=O)c2nn(C)cc2-c2ncccn2)[C@@H]1CNc1ncc(C(F)(F)F)cc1F [Compound 228, ((2S,3R)-5,5-difluoro-2-(((3-fluoro-5-(trifluoromethyl)pyridin-2-yl)amino)methyl)-3-methylpiperidin-1-yl)(1-methyl-4-(pyrimidin-2-yl)-1H-pyrazol-3-yl)methanone] | 14 nM | > 5000 nM |
| Cc1ccc(-c2sc(C)nc2C(=O)N2CC(F)(F)C[C@@H](C)[C@H]2CNc2ccc(C(F)(F)F)cn2)cc1 [Compound 186] | 6 nM | > 5000 nM |
| Cc1nc(C(=O)N2CC(F)(F)C[C@@H](C)[C@H]2CNc2ncc(C(F)(F)F)cn2)c(-c2ccccc2F)s1 [Compound 66] | 1 nM | 2080 nM |
| C[C@@H]1CC(F)(F)CN(C(=O)c2nn(C)cc2-c2ncc(F)cn2)[C@@H]1COc1ncc(C(F)(F)F)cn1 [Compound 246] | 4820 nM | > 5000 nM |
